Experimental findings from PubChem BioAssay AID743442 (Broad Institute, 2014) are described below.

Molecules are shown by their SMILES. Calls of active or inactive are those of the source.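 The calls were made as follows: active = cell-killing curve, signal falling, whose fitted AC50 is at most twice the top tested dose; inconclusive = flat fit with a moderate signal drop, or a poor fit; inactive = the rest.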 Bounds are passed on as bounds.

One assay has as its system HEK293T viability, ATP luminescence (CellTiter-Glo), 72 h. In words: HEK293T cell cytotoxicity, dose response, cytotoxicity control, CellTiter-Glo luminescence, dry powder samples, set 14 (AID 743442).
Conditions: not given
(In general: Cellular ATP, detected with luciferase, serves as a proxy for viable cell number.)
As for `COc1cc(CNCCCN2CCOCC2)ccc1OCC(=O)Nc1cccc(C(F)(F)F)c1`, the AC50 is > 52 µM (inactive).
With `O=C(COc1ccc(C(=O)NC2CCCCC2)cc1)Nc1cccc(C(F)(F)F)c1`, the AC50 is > 52 µM (inactive).
Same read-out and setting: then `CN(C(=O)COc1ccccc1C(=O)NCCc1ccccc1)c1ccccc1`, with > 52 µM (inactive).
Consider `CCN(CC)CCCNC(=O)c1ccc(OCC(=O)Nc2ccccc2C(F)(F)F)c(OC)c1`, for which the AC50 is > 52 µM (inactive).
Still for that read-out and setting: then `O=C(CSc1c2c(nc3ccc(Cl)cc13)CCCC2)Nc1ccc(Cl)cc1`, with > 52 µM (inactive); and `O=C(CSc1c2c(nc3ccc(Cl)cc13)CCCC2)N1CCN(Cc2ccccc2)CC1`, with > 52 µM (inactive).

Tested on in the next assay: not listed separately
The description is as above. The settings on record: HEK293T viability, ATP luminescence (CellTiter-Glo), 72 h; at 12 µM (top of the series).
For the compound `CCN1CCCC1CNC(=O)CSc1c2c(nc3ccc(Cl)cc13)CCCC2` (stereo not given), the activity change, negative = cytotoxicity is -4.32% (inactive).

Staying with this assay, now noted: HEK293T viability, ATP luminescence (CellTiter-Glo), 72 h; at 26 µM (top of the series).
Consider `O=C(CSc1c2c(nc3ccc(Cl)cc13)CCCC2)N1CCC(N2CCCCC2)CC1`, for which the activity change, negative = cytotoxicity was -3.26% (inactive).
For `O=C(CSc1c2c(nc3ccc(Cl)cc13)CCCC2)NC1CCCC1`, the activity change, negative = cytotoxicity was -7.43% (inactive).
With `CCN(CC)C(=O)CSc1c2c(nc3ccc(Cl)cc13)CCCC2`, the activity change, negative = cytotoxicity was 0.809% (inactive).
Still for that read-out and setting: then `CC(Sc1c2c(nc3ccc(Cl)cc13)CCCC2)C(=O)NCc1ccco1` (stereo not given), with -3.71% (inactive); and `O=C(CSc1c2c(nc3ccc(Cl)cc13)CCCC2)NC1CCN(Cc2ccccc2)CC1`, with -3.75% (inactive).
The same measure, in the same setting: next, `O=C(CSc1c2c(nc3ccc(Cl)cc13)CCCC2)NCc1ccc2c(c1)OCO2`: 0.001% (inactive); `O=C(CSc1c2c(nc3ccc(Cl)cc13)CCCC2)Nc1ccccc1`: -10.7% (inactive); `CCOc1ccc(NC(=O)COc2ccc(C(=O)N3CCC(C(N)=O)CC3)cc2OC)cc1`: -5.36% (inactive).
Still for that read-out and setting: then `O=C(CSc1c2c(nc3cc(Cl)ccc13)CCCC2)N(Cc1ccco1)C1CCCC1`, with -4.09% (inactive); and `O=C(CSc1ccc2ccccc2n1)NCc1ccco1`, with -3.39% (inactive).
For `O=C(CSc1cccc2cccnc12)NCc1ccco1`, the activity change, negative = cytotoxicity was -4.54% (inactive).
The same measure, in the same setting: then `CN(CCOc1ccccc1)C(=O)c1ccc(OCC(=O)Nc2cccc(C(F)(F)F)c2)cc1`, with -0.662% (inactive); and `CN(CCNC(=O)CSc1c2c(nc3ccc(Cl)cc13)CCCC2)Cc1ccccc1`, with -3.21% (inactive).
The same measure, in the same setting: next, `O=C(CSc1c2c(nc3ccc(Cl)cc13)CCCC2)N1CCOCC1`: -5.19% (inactive); `CCOC(=O)C1CCN(C(=O)c2ccc(OCC(=O)Nc3ccc(OCC)cc3)c(OC)c2)CC1`: -2.45% (inactive); `CCOC(=O)N1CCC(NC(=O)CSc2c3c(nc4ccc(Cl)cc24)CCCC3)CC1`: -0.517% (inactive).
The same measure, in the same setting: then `O=C(CSc1c2c(nc3ccc(Cl)cc13)CCCC2)NCc1ccccn1`, with -4.85% (inactive); and `Cn1c(=O)cc(SCC(=O)NCc2ccco2)c2ccccc21`, with 0.641% (inactive); and `COc1cc(C(=O)NCCCN(C)C)ccc1OCC(=O)Nc1cccc(C(F)(F)F)c1`, with -18.3% (inactive).
For the compound `CC1(C)CC(NC(=O)c2ccc(OCC(=O)Nc3cccc(C(F)(F)F)c3)cc2)CC(C)(C)N1`, the activity change, negative = cytotoxicity is -24.7% (inactive).
Still for that read-out and setting: then `CN(C(=O)COc1ccc(Cl)cc1C(N)=O)c1ccccc1`, with 1.16% (inactive).
The same measure, in the same setting: next, `Cc1ccc(CNC(=O)CSc2c3c(nc4ccc(Cl)cc24)CCCC3)o1`: -8.3% (inactive).
For the compound `COC(=O)CCCN(C)C(=O)c1ccc(OCC(=O)Nc2cccc(OC)c2)cc1`, the activity change, negative = cytotoxicity was -4.85% (inactive).
The same measure, in the same setting: then `CN(C)c1ccc(NC(=O)COc2ccccc2C(=O)N2CCOCC2)cc1`, with -0.871% (inactive).
For the compound `Cc1cccc(NC(=O)CSc2c3c(nc4ccc(Cl)cc24)CCCC3)n1`, the activity change, negative = cytotoxicity was -9.51% (inactive).
Still for that read-out and setting: then `COCCN(Cc1ccco1)C(=O)CSc1c2c(nc3cc(Cl)ccc13)CCCC2`, with -8.9% (inactive); and `O=C(COc1ccc(C(=O)N2CCN(C(=O)C3CC3)CC2)cc1)Nc1cccc(C(F)(F)F)c1`, with -7.18% (inactive); and `COc1ccc(N(Cc2cccs2)C(=O)COc2ccccc2C(=O)Nc2ccccc2)cc1`, with -7.68% (inactive).
On the same count and under the same terms, next, `COc1ccc(NC(=O)CSc2c3c(nc4ccc(Cl)cc24)CCCC3)cc1`: -8.96% (inactive); `O=C(CSc1c2c(nc3ccc(Cl)cc13)CCCC2)NCc1cccs1`: -5.31% (inactive).
In the case of `O=C(CSc1c2c(nc3ccc(Cl)cc13)CCCC2)N1CCNC1=O`, the activity change, negative = cytotoxicity is -2.06% (inactive).
In the case of `O=C(COc1ccc(C(=O)NCC2CCCO2)cc1)Nc1cccc(C(F)(F)F)c1` (stereo not given), the activity change, negative = cytotoxicity was -6.65% (inactive).
On the same count and under the same terms, next, `NC(=O)C1CCN(C(=O)c2ccc(OCC(=O)Nc3cccc(C(F)(F)F)c3)cc2)CC1`: -5.23% (inactive); `O=C(CSc1c2c(nc3ccc(Cl)cc13)CCCC2)NCc1ccco1`: -6.1% (inactive); `COc1ccc(OCCNC(=O)c2ccccc2OCC(=O)Nc2ccc(NC(C)=O)cc2)cc1`: -1.7% (inactive).
On to `COCCNC(=O)CSc1c2c(nc3ccc(Cl)cc13)CCCC2`, for which the activity change, negative = cytotoxicity is -7.42% (inactive).
On the same count and under the same terms, next, `O=C(CSc1c2c(nc3ccc(Cl)cc13)CCCC2)NCc1ccc(F)cc1`: -14.3% (inactive).
Take `O=C(O)CSc1c2c(nc3cc(C(=O)NCc4cccs4)ccc13)CCCC2`: the activity change, negative = cytotoxicity is -5.37% (inactive).
Still for that read-out and setting: then `Cc1ccc(CNC(=O)CSc2c3c(nc4ccc(Cl)cc24)CCCC3)cc1`, with -7.44% (inactive); and `Cc1cccc(CCNC(=O)CSc2c3c(nc4ccc(Cl)cc24)CCCC3)c1`, with -5.98% (inactive); and `O=C(CSc1c2c(nc3ccc(Cl)cc13)CCCC2)NCCN1CCN(Cc2ccccc2)CC1`, with -10.3% (inactive).
Turning to `Cc1ccc(NC(=O)COc2ccccc2C(=O)NCCN(C)C)cc1`, the activity change, negative = cytotoxicity was -1.02% (inactive).
For the compound `CCCNC(=O)CSc1c2c(nc3ccc(Cl)cc13)CCCC2`, the activity change, negative = cytotoxicity was -1.94% (inactive).
Still for that read-out and setting: then `CCOC(=O)C1CCN(C(=O)c2ccc(OCC(=O)N3CCOCC3)c(OC)c2)CC1`, with -7.89% (inactive); and `CCCCOc1ccc(NC(=O)COc2ccccc2C(=O)NCCOc2ccccc2)cc1`, with -30.8% (inactive).
The same measure, in the same setting: then `O=C(CSc1c2c(nc3ccc(Cl)cc13)CCCC2)NCC1(c2ccccc2)CCCC1`, with -8.09% (inactive); and `O=C(CSc1c2c(nc3ccc(Cl)cc13)CCCC2)NCCN1CCOCC1`, with -9.3% (inactive).
Same read-out and setting: next, `O=C(COc1ccc(C(=O)N2CCC2)cc1)Nc1cccc(C(F)(F)F)c1`: -6.82% (inactive).
For `CC(C)NC(=O)CSc1c2c(nc3ccc(Cl)cc13)CCCC2`, the activity change, negative = cytotoxicity was -3.4% (inactive).
The same measure, in the same setting: next, `O=C(CSc1c2c(nc3ccc(Cl)cc13)CCCC2)N1CCCCC1`: -5.3% (inactive).
For `O=C(COc1ccccc1C(=O)NCCOc1ccc(Cl)cc1)Nc1cccc(Cl)c1`, the activity change, negative = cytotoxicity is -30.7% (inactive).
On the same count and under the same terms, next, `O=C(CSc1c2c(nc3ccc(Cl)cc13)CCCC2)NC1CC1`: -2.74% (inactive); `COc1ccc(CNC(=O)CSc2c3c(nc4ccc(Cl)cc24)CCCC3)cc1`: -6.81% (inactive).
For `CN(C(=O)COc1ccccc1C(=O)Nc1ccccc1)c1ccccc1`, the activity change, negative = cytotoxicity was -12.4% (inactive).
Regarding `O=C(CSc1c2c(nc3ccc(Cl)cc13)CCCC2)NCCCc1ccccc1`, the activity change, negative = cytotoxicity was -6.44% (inactive).
Same read-out and setting: next, `Cc1ccc(CNC(=O)CSc2c3c(nc4cc(Cl)ccc24)CCCC3)o1`: -11.4% (inactive); `Cn1cc(SCC(=O)NCc2ccco2)c2ccccc21`: -10.8% (inactive); `O=C(CSc1c2c(nc3ccc(Cl)cc13)CCCC2)NCC1CCCO1` (stereo not given): -12.2% (inactive).
Turning to `Cc1ccc2nc(Cl)cc(SCC(=O)NCc3ccco3)c2c1`, the activity change, negative = cytotoxicity was -11.1% (inactive).
On the same count and under the same terms, then `O=C(COc1ccccc1C(=O)NCc1ccccc1)Nc1ccccc1`, with -5.85% (inactive); and `O=C(CSc1c2c(nc3ccc(Cl)cc13)CCCC2)NCc1cccnc1`, with -3.63% (inactive); and `O=C(CSc1c2c(nc3ccccc13)CCCC2)NCc1ccco1`, with -6.44% (inactive).
As for `CN(C(=O)COc1ccccc1C(N)=O)c1ccccc1`, the activity change, negative = cytotoxicity is -5.5% (inactive).

In general, AC50 refers to the midpoint of the concentration-response curve, whichever way the signal moves.
